In assay [1] the target is T1, hTAS1R2 + hTAS1R3 G804A^7.42 (Homo sapiens, UniProt Q7RTX0+Q8TE23, G804A).
T1 construct: expressed in transfected cells; host or cells: HEK293T cells stably expressing G16Gust44
T1 sequence (Q7RTX0 21-852 G804A): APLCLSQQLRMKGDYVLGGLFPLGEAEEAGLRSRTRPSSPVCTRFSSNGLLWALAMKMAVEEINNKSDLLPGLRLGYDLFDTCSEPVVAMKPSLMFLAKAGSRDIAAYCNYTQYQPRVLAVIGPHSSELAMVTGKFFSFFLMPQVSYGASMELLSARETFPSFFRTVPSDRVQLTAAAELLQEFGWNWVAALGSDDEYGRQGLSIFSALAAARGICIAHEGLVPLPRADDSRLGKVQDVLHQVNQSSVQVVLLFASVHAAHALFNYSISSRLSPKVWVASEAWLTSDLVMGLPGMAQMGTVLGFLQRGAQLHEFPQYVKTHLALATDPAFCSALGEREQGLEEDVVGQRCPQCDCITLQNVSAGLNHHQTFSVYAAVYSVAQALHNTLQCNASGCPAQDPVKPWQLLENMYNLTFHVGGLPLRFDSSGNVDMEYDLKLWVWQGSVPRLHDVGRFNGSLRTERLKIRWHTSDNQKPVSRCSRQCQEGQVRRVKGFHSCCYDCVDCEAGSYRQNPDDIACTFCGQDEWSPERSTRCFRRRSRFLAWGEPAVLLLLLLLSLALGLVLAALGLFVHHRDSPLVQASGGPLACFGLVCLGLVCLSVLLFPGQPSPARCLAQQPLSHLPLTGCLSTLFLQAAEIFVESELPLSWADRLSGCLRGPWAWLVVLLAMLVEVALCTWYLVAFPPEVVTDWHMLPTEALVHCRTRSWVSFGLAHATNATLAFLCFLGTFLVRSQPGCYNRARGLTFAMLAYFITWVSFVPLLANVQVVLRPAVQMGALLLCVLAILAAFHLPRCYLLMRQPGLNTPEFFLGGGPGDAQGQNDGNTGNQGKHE
T1 sequence (Q8TE23 20-839): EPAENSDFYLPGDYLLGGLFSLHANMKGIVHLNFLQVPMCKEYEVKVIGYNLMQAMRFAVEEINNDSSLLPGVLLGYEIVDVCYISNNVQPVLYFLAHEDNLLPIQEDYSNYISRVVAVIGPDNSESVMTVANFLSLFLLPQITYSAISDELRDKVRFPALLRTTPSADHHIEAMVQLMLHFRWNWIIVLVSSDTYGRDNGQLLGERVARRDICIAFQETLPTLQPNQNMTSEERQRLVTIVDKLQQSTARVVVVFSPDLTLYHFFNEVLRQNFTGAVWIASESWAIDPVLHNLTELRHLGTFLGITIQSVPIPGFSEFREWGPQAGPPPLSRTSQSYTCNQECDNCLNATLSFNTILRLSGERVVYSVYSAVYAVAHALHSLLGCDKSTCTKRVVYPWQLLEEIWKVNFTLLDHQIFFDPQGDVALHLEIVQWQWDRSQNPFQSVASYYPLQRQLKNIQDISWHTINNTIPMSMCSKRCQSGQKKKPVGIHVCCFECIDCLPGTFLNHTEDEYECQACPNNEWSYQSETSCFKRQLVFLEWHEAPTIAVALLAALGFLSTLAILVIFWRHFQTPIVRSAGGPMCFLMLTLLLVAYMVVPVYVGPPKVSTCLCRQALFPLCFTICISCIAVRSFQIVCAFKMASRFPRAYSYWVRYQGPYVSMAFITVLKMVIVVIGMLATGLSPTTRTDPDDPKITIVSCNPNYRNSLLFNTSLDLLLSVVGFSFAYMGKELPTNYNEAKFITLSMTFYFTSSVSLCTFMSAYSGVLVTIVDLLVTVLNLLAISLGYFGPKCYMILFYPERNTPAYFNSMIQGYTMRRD
As to the kind of experiment: Calcium response (FLIPR), hTAS1R3 mutant coexpressed with hTAS1R2. The format is cell-based. To be noted: variant G804A^7.42; for Emax: read-out: maximal signal (% of wt). In a few lines: (§1)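 HEK293T cells stably expressing chimeric G16Gust44 were transiently transfected with C-terminally HSV-tagged hTAS1R2 and mutant hTAS1R3, then loaded 24 h later with Fluo4-AM for 1 h. Calcium mobilization after sweet-tastant application was read by FLIPR, mock-corrected and expressed as ΔF/F.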

In assay [2] the target is T2, hTAS1R2 + hTAS1R3 G804V^7.42 (Homo sapiens, UniProt Q7RTX0+Q8TE23, G804V).
T2 construct: expressed in transfected cells; host or cells: HEK293T cells stably expressing G16Gust44
T2 sequence (Q7RTX0 21-852 G804V): T1 sequence (Q7RTX0 21-852 G804A) with A784V
T2 sequence (Q8TE23 20-839): T1 sequence (Q8TE23 20-839)
The description is as above. The assay is classed as cell-based. To be noted: for EC50: n.r. = no response to NHDC up to highest tested concentration (6 mM), but responses to other sweeteners. In a few lines:
as §1

Where a chain is given by its changes, count along the chain named. Like-named read-outs stand apart in the source and are kept apart here. Where a SMILES comes first, the peptide text is derived from it.

The values that follow come from publication PMC2099433, “The binding site for neohesperidin dihydrochalcone at the human sweet taste receptor” (BMC Structural Biology, 2007).

Broadly, the EC50 is the midpoint of the concentration-response curve. Consider `COc1ccc(CCC(=O)c2c(O)cc(O[C@@H]3O[C@H](CO)[C@@H](O)[C@H](O)[C@H]3O[C@@H]3O[C@@H](C)[C@H](O)[C@@H](O)[C@H]3O)cc2O)cc1O` [NHDC, neohesperidin dihydrochalcone], for which the concentration giving a half-maximal response (EC50) in assay [1] is 1.3 ± 0.5 mM; in assay [2] (variant G804V^7.42) it was “n.r”. For the same compound, the Emax in assay [1] was determined as 53 ± 10%. In addition, in assay [2] (mutant G804V^7.42, any tested concentration), the receptor response entry is listed as “did not respond to NHDC at any tested concentration”.
In the case of `COC(=O)[C@H](Cc1ccccc1)NC(=O)[C@@H](N)CC(=O)O` [aspartame] (HELM PEPTIDE1{D.F.[CO[*:1]]}$$$$V2.0), the concentration giving a half-maximal response (EC50) in assay [1] worked out at 1.6 ± 0.2 mM; in assay [2] (variant G804V^7.42, read-out: EC50), 1.3 ± 0.3 mM. In addition, the Emax came out at 44 ± 1% in assay [1] and 21 ± 2% in assay [2] (variant G804V^7.42, read-out: maximal signal (% of wt)).
